Measured values as given in PubChem BioAssay (NCI).
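Growth conditions: 96-well plates. Treatment: test compound, 48 hours, 5 concentrations. Analysis: linear interpolation between bracketing concentrations; unreached endpoints set to highest concentration. GI50: concentration for 50% inhibition of growth. TGI is the concentration that stops growth completely.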

Tests used:
Assay in all cases: NCI-60 cell line screen, 48 h
[1] = test system: SK-OV-3 ovarian
[2] = test system: HOP-92 NSCLC
[3] = test system: UO-31 renal
[4] = test system: MDA-MB-231 breast
[5] = test system: K-562 leukemia
[6] = test system: SK-MEL-5 melanoma
[7] = test system: OVCAR-8 ovarian
[8] = test system: OVCAR-3 ovarian
[9] = test system: SR leukemia
[10] = test system: TK-10 renal
[11] = test system: A549 NSCLC
[12] = test system: DU-145 prostate
[13] = test system: OVCAR-5 ovarian
[14] = test system: NCI-H23 lung
[15] = test system: NCI/ADR-RES ovarian
[16] = test system: UACC-62 melanoma
[17] = test system: NCI-H522 lung
[18] = test system: MCF7 breast
[19] = test system: RPMI-8226 leukemia
[20] = test system: T-47D breast
[21] = test system: M14 melanoma
[22] = test system: HL-60(TB) leukemia
[23] = test system: SK-MEL-2 melanoma
[24] = test system: MALME-3M melanoma
[25] = test system: RXF 393 renal
[26] = test system: HS 578T breast
[27] = test system: CAKI-1 renal
[28] = test system: SW-620 colon
[29] = test system: SN12C renal
[30] = test system: OVCAR-4 ovarian
[31] = test system: SK-MEL-28 melanoma
[32] = test system: HOP-62 NSCLC
[33] = test system: HCC-2998 colon
[34] = test system: BT-549 breast
[35] = test system: ACHN renal
[36] = test system: CCRF-CEM leukemia
[37] = test system: NCI-H460 lung
[38] = test system: SF-539 CNS
[39] = test system: MOLT-4 leukemia
[40] = test system: HCT-15 colon
[41] = test system: MDA-MB-435
[42] = test system: LOX IMVI melanoma
[43] = test system: U251 CNS
[44] = test system: A498 renal
[45] = test system: SNB-75 CNS
[46] = test system: COLO 205 colon
[47] = test system: SF-268 CNS
[48] = test system: KM12 colon
[49] = test system: UACC-257 melanoma
[50] = test system: SNB-19 CNS
[51] = test system: HCT-116 colon
[52] = test system: EKVX NSCLC
[53] = test system: SF-295 CNS
[54] = test system: PC-3 prostate
[55] = test system: HT29 colon
[56] = test system: NCI-H226 lung
[57] = test system: 786-0 renal

**Q.** Which results are given for `COc1cc2c3c(n(CCCN)c(=O)c2cc1OC)-c1ccc([N+](=O)[O-])cc1C3=O`?
**A.** GI50 [1]: 12.2 µM; TGI [1]: 28.7 µM; GI50 [2]: 10.5 µM; TGI [2]: 30.5 µM; GI50 [3]: 0.222 µM; TGI [3]: 6.22 µM; GI50 [4]: 18.9 µM; TGI [4]: 34.6 µM; GI50 [5]: 5.57 µM; TGI [5]: 31.3 µM; GI50 [6]: 5.23 µM; TGI [6]: 19.5 µM; GI50 [7]: 2 µM; TGI [7]: 5.41 µM; GI50 [8]: 16.5 µM; TGI [8]: 37.5 µM; GI50 [9]: 0.0731 µM; TGI [9]: 10.4 µM; GI50 [10]: 20.7 µM; TGI [10]: 41.4 µM; GI50 [11]: 9.88 µM; TGI [11]: 34.7 µM; GI50 [12]: 2.11 µM; TGI [12]: 10.6 µM; GI50 [13]: 15.9 µM; TGI [13]: 30.7 µM; GI50 [14]: 5.13 µM; TGI [14]: 25.1 µM; GI50 [15]: 14 µM; TGI [15]: > 100 µM; GI50 [16]: 11.5 µM; TGI [16]: 25.1 µM; GI50 [17]: 0.489 µM; TGI [17]: 10.8 µM; GI50 [18]: 0.317 µM; TGI [18]: 1.96 µM; GI50 [19]: 1.75 µM; TGI [19]: 4.91 µM; GI50 [20]: 3.86 µM; TGI [20]: 20.2 µM; GI50 [21]: 5.77 µM; TGI [21]: 19.4 µM; GI50 [22]: 17.8 µM; TGI [22]: 37.8 µM; GI50 [23]: 0.0173 µM; TGI [23]: 5.19 µM; GI50 [24]: 16.7 µM; TGI [24]: 40.5 µM; GI50 [25]: 19.2 µM; TGI [25]: 43.7 µM; GI50 [26]: 22.5 µM; TGI [26]: 46.1 µM; GI50 [27]: 4.7 µM; TGI [27]: 19.4 µM; GI50 [28]: 2.12 µM; TGI [28]: 19.1 µM; GI50 [29]: 11.7 µM; TGI [29]: 27.6 µM; GI50 [30]: 11.5 µM; TGI [30]: 33.7 µM; GI50 [31]: 17.8 µM; TGI [31]: 34.3 µM; GI50 [32]: 0.613 µM; TGI [32]: 2.26 µM; GI50 [33]: 2.29 µM; TGI [33]: 13.6 µM; GI50 [34]: 13.4 µM; TGI [34]: 28 µM; GI50 [35]: 5.2 µM; TGI [35]: 16.7 µM; GI50 [36]: 0.15 µM; TGI [36]: 2.73 µM; GI50 [37]: 0.572 µM; TGI [37]: 2.35 µM; GI50 [38]: 3.76 µM; TGI [38]: 14.9 µM; GI50 [39]: 0.434 µM; TGI [39]: 16.2 µM; GI50 [40]: 5.83 µM; TGI [40]: 19 µM; GI50 [41]: 15.9 µM; TGI [41]: 37.5 µM; GI50 [42]: 2.28 µM; TGI [42]: 16.6 µM; GI50 [43]: 4.94 µM; TGI [43]: 19.8 µM; GI50 [44]: 17.4 µM; TGI [44]: 34.1 µM; GI50 [45]: 16.3 µM; TGI [45]: 34.7 µM; GI50 [46]: 10.1 µM; TGI [46]: 22.8 µM; GI50 [47]: 7.74 µM; TGI [47]: 24.4 µM; GI50 [48]: 14.6 µM; TGI [48]: 31 µM; GI50 [49]: 31 µM; TGI [49]: > 100 µM; GI50 [50]: 3.11 µM; TGI [50]: 18.3 µM; GI50 [51]: 1.32 µM; TGI [51]: 2.74 µM; GI50 [52]: 20 µM; TGI [52]: 40.7 µM; GI50 [53]: 0.912 µM; TGI [53]: 17.9 µM; GI50 [54]: 7.63 µM; TGI [54]: 22.9 µM; GI50 [55]: 5.07 µM; TGI [55]: 21.4 µM; GI50 [56]: 17.4 µM; TGI [56]: 38.3 µM; GI50 [57]: 1.66 µM; TGI [57]: 3.55 µM
